Legend:
mice [1] = details: mouse, in vivo
mice [2] = details: mouse, in vivo, iv
mice [3] = details: mouse, in vivo; remark: listed apart in the source

Molecule | tremor symptoms and tremor time (side effects) 30 minutes after administration (mice [1]) | antinociceptive effect 1 hour after injection (mice [2]) | duration of the maximal effect (mice [2]) | onset of antinociceptive effect after nasal administration (mice [3]) | tremor symptoms and tremor time (side effects) 120 minutes after administration, compared with MVIIA (mice [1]) | time of maximal (strongest) antinociceptive effect after administration (mice [2]) | difference from the saline group at 8 hours (mice [3]) | time after which the effect disappears (mice [3])
CSCC[C@@H]1NC(=O)[C@H](CC(C)C)NC(=O)[C@H](CCCNC(=N)N)NC(=O)[C@H](CO)NC(=O)[C@@H]2CSSC[C@@H]3NC(=O)[C@H](CO)NC(=O)CNC(=O)[C@H]([C@@H](C)O)NC(=O)[C@H](CSSC[C@H](N)C(=O)N[C@@H](CCCCN)C(=O)NCC(=O)N[C@@H](CCCCN)C(=O)NCC(=O)N[C@@H](C)C(=O)N[C@@H](CCCCN)C(=O)N2)NC(=O)[C@H](CSSC[C@@H](C(N)=O)NC(=O)[C@H](CCCCN)NC(=O)CNC(=O)[C@H](CO)NC(=O)[C@H](CCCNC(=N)N)NC3=O)NC(=O)[C@H](CC(=O)O)NC(=O)[C@H](Cc2ccc(O)cc2)NC1=O [MVIIA, reference compound] | more obvious tremor symptoms and longer tremor time |  |  |  |  |  |  | 
CKGKGAKCSRLMYDCCTGSCRSGKCGGGYGRKKRRQRRR [MVIIA-d] | lower than that of MVIIA | showed antinociceptive effects | about 4 hours | immediate effect | no significant differences |  |  | 
CKGKGAKCSRLMYDCCTGSCRSGKCGGYGRKKRRQRRR [MVIIA-c] | lower than that of MVIIA |  | about 4 hours | immediate effect | no significant differences | 3 h | still significantly different | 10 h
CKGKGAKCSRLMYDCCTGSCRSGKCGYGRKKRRQRRR [MVIIA-b] | lower than that of MVIIA | showed antinociceptive effects | about 4 hours | immediate effect | no significant differences |  | still significantly different | 10 h
CKGKGAKCSRLMYDCCTGSCRSGKCYGRKKRRQRRR [MVIIA-a] | lower than that of MVIIA | showed antinociceptive effects | about 4 hours | immediate effect | no significant differences |  |  | 
